# Laboratory results as given in patent publication US20230181638A1, “IMMUNOGENIC PEPTIDES WITH NEW OXIDOREDUCTASE MOTIFS” (IMCYSE SA, priority 2020, published 2023).
# Where a SMILES comes first, the peptide text is derived from it. Where no end group is shown, it is not given here.
# Experiments:
# [1] = system: 2D2-Total CD4+ cells; experiment: induction of lytic markers on CD4+ T cells after second stimulation; type: cell-based, 2D2 transgenic mice; settings: 5 μM control peptide, 10-14 days after S1
# Excerpt: 2D2 transgenic mice (Jackson Laboratory) were used as a source of CD4+ cell. […] In this study, 2D2-Total CD4+ cells were purified using manufacture instruction (Miltenyi Biotec, 130-104-454) and antigen presenting cells were splenocyte depleted for T cell repertoire (CD90.2 depletion, Miltenyi Biotec, 130-104-454) from C57BL6 mice (compatible with 2D2-transgenic mice). Control conditions for every study were either no-peptide addition or addition of IMCY-0017, IMCY-0257 or IMCY-0069 (see example 1 and table 1) which the two later, can bind to MHCII from C57BL6-APC efficiently but not activate the TCR from 2D2-transgenic CD4+ T cells. AA controls were not used.
# Immunogenic peptides comprising an MCHII T cell epitope and a classical oxidoreductase motif of sequence CxxC are known from the art to induce CD4+ cells with lytic markers called cytolytic CD4+ cells (cCD4+). Therefore, it was attempted to determine whether the peptide variants of the present invention would lead to earlier and/or stronger (percentage or intensity) lytic properties in activated Ag-specific CD4 T cells. […] The FACS results were then determined for all variants of IMCY-0189 and the measurement for the wild type peptide (IMCY-0017) was removed from all the other measurements to determine purely the effect of every modified oxidoreductase motif on the induction of lytic properties.
# [2] = system: Experimental Auto-Immune Encephalomyelitis (EAE); experiment: therapeutic administration, EAE clinical score in mice; type: in vivo; settings: for mice died: therapeutic EAE study, 16 mice per group, deaths did not appear to be due to EAE
# Experimental: The study used a total of 64 female C57BL/6 mice (Taconic Biosciences, 9 weeks old on Day 0). Mice were acclimated for 7 days prior to the first injection. Mice were assigned to groups in a balanced manner to achieve similar average weight across the groups at the start of the study.
# Dosing of all mice was performed once on each of the days indicated in Table 6, s.c., at a volume of 0.05 mL/site, each mouse receiving injection at two sites, for a total of 0.1 mL/mouse/dosing day. IMCY-0189, IMCY-0453 or IMCY-0455 peptide total close was […] per administration.
# For Saline treatment, 0.9% NaCl solution was prepared at each dosing day. Peptide's preparation was performed as described in example 3.
# (§1) AUC, MMS, inflammation and demyelination, and NF-L levels quantification data were analyzed by performing Ordinary one-way ANOVA. Adjustment for multiplicity was performed using Holm-Sidak's method. Significant differences are referred as follows: *p<0.05, **p<0.01, ***p<0.001, ****p<0.0001.
# EAE induction and scoring were performed as described in example 3.
# EAE development was evaluated by comparing clinical EAE readouts for all groups to the negative control (Saline) group.
# [3] = system: Experimental Auto-Immune Encephalomyelitis (EAE); experiment: therapeutic EAE study, spinal cord histology (H&E, anti-MBP); type: in vivo, C57BL/6 mice; settings: spinal cord sections at end of study, vs Saline control
# Experimental: At the end of the study, all mice were euthanized, and spines were collected and placed in 10% buffered formalin for histological analysis.
# For each spine, one H&E stained slide and one anti-MBP stained slide were prepared and analyzed. Each slide contained a section with samples from lumbar, thoracic and cervical of spinal cord (3 samples). All analysis was performed by a pathologist blinded to the experimental groups and all clinical readouts.
# Inflammatory foci of approximately 20 cells were counted in each H&E stained section. When inflammatory infiltrates consisted of more than 20 cells, an estimate was made of how many foci of 20 cells were present.
# Demyelination was scored in each anti-MBP (using immunohistochemistry) stained section. In anti-MBP sections, demyelination is observed as conspicuous unstained areas in white matter tracts and is associated with presence of large vacuoles. […]
# AUC, MMS, inflammation and demyelination, and NF-L levels quantification data were analyzed by performing Ordinary one-way ANOVA. […]
# Histological readouts were evaluated by comparing inflammation and demyelination levels for all groups to the negative control (Saline) group.
# [4] = system: Neurofilament light (NF-L) protein; experiment: therapeutic EAE study, serum neurofilament levels (Simoa NF-light); type: in vivo, C57BL/6 mice; settings: serum on Day 28, vs Saline negative control, FIG. 10
# Experimental: On Day 28, blood was collected from all mice into gel dot activator tubes and allowed to dot at room temperature for ˜30 minutes. Blood is then centrifuged at ˜10000 g for 5 minutes. Serum was transferred into Eppendorf tubes and stored at −80° C. until shipment to Quanterix™. Serum Neurofilament light (NF-L) protein levels were quantified using Simoa® NF-light Advantage kit, a digital immunoassay for the quantitative determination of NF-L in serum, plasma and CSF. The used antibodies (Uman Diagnostics, Umeå Sweden) also cross react with murine, bovine and macaque NF-L epitopes and as such, this assay can be used for research with these species. All samples were tested in duplicate at a dilution factor of 40×.
# as §1
# Axonal damage was also evaluated by comparing NF-L levels for all groups to the negative control (Saline) group.
# [5] = system: Experimental Auto-Immune Encephalomyelitis (EAE); experiment: prophylactic administration, EAE clinical score in mice; type: in vivo, C57BL/6 mice; settings: vs Alum control group, FIG. 2C, FIG. 4
# [6] = therapeutic, 30 μg s.c. with Alum on Days 4, 9, 14, 19, vs Saline negative control
compound,measurement,setting,value
HCPYC-NGGFNSNRANSSRSS-NH2 (HCPYCNGGFNSNRANSSRSS-NH2; cysteine pairing not given here) [IMCY-0257],survival of the cell culture up to second stimulation,[1],did not survive in the cell culture
"KCRPYC-GWYRSPFSRVVHLYR-NH2 (KCRPYCGWYRSPFSRVVHLYR-NH2; cysteine pairing not given here) [IMCY-0455, KCRPYC motif variant of IMCY-0189]",mice died,[2],1
same,"all clinical readouts (disease onset, end score, AUC and MMS) as compared to IMCY-0189","[2]; therapeutic, 30 μg s.c. with Alum on Days 4, 9, 14, 19, vs IMCY-0189 group",statistically significantly improved
same,disease onset,[2]; [6],statistically significantly improved
same,end score,[2]; [6],statistically significantly improved
same,AUC of EAE scores,"[2]; therapeutic, 30 μg s.c. with Alum on Days 4, 9, 14, 19, vs Saline negative control, FIG. 6",statistically significantly improved
same,MMS of EAE scores,"[2]; therapeutic, 30 μg s.c. with Alum on Days 4, 9, 14, 19, vs Saline negative control, FIG. 7",statistically significantly improved
same,"level of inflammation (inflammatory foci, H&E)",[3]; FIG. 8,statistically significant reduced level
same,level of demyelination (anti-MBP score),[3]; FIG. 9,statistically significant reduced level
same,serum NF-L levels,[4],statistically significant reduced
"CC(C)C[C@H](NC(=O)[C@H](Cc1c[nH]cn1)NC(=O)[C@@H](NC(=O)[C@@H](NC(=O)[C@H](CCCNC(=N)N)NC(=O)[C@H](CO)NC(=O)[C@H](Cc1ccccc1)NC(=O)[C@@H]1CCCN1C(=O)[C@H](CO)NC(=O)[C@H](CCCNC(=N)N)NC(=O)[C@H](Cc1ccc(O)cc1)NC(=O)[C@H](Cc1c[nH]c2ccccc12)NC(=O)CNC(=O)[C@H](CS)NC(=O)[C@H](CCCNC(=N)N)NC(=O)[C@H](CS)NC(=O)[C@@H](N)CCCCN)C(C)C)C(C)C)C(=O)N[C@@H](Cc1ccc(O)cc1)C(=O)N[C@@H](CCCNC(=N)N)C(N)=O [IMCY-0453, KCRC-GWYRSPFSRVVHLYR-NH2] (H-KCRCGWYRSPFSRVVHLYR-NH2)",mice died,[2],1
"CC(C)C[C@H](NC(=O)[C@H](Cc1c[nH]cn1)NC(=O)[C@@H](NC(=O)[C@@H](NC(=O)[C@H](CCCNC(=N)N)NC(=O)[C@H](CO)NC(=O)[C@H](Cc1ccccc1)NC(=O)[C@@H]1CCCN1C(=O)[C@H](CO)NC(=O)[C@H](CCCNC(=N)N)NC(=O)[C@H](Cc1ccc(O)cc1)NC(=O)[C@H](Cc1c[nH]c2ccccc12)NC(=O)CNC(=O)[C@H](CS)NC(=O)[C@H](Cc1ccc(O)cc1)NC(=O)[C@@H]1CCCN1C(=O)[C@H](CS)NC(=O)[C@@H](N)Cc1c[nH]cn1)C(C)C)C(C)C)C(=O)N[C@@H](Cc1ccc(O)cc1)C(=O)N[C@@H](CCCNC(=N)N)C(N)=O [IMCY-0189, HCPYC-GWYRSPFSRVVHLYR-NH2, reference compound] (H-HCPYCGWYRSPFSRVVHLYR-NH2)",mice died,[2],No mice died
CPYC-GWYRSPFSRVVHLYR-NH2 (CPYCGWYRSPFSRVVHLYR-NH2; cysteine pairing not given here) [IMCY-0443],reduction of the peak of the disease or MMS,[5],not observed
HCPYC-LALWEPKPTQAFVK-NH2 (HCPYCLALWEPKPTQAFVK-NH2; cysteine pairing not given here) [IMCY-0069],survival of the cell culture up to second stimulation,[1],did not survive in the cell culture
